This note sets out measurements from ChEMBL document CHEMBL1141728, “Transtorine, a new quinoline alkaloid from Ephedra transitoria” (1998).

Converted amounts (≈) assume the structure as drawn. The source made the active and inactive calls. No cut-off for these calls is given here.

One experiment deals with Pseudomonas aeruginosa. Briefly: Antibacterial activity against Pseudomonas aeruginosa by disk diffusion method. The format is functional. For orientation: A growth-free zone around the sample is the usual read-out of agar diffusion tests.
A further experiment has as its system Proteus mirabilis. The experiment in a line: Antibacterial activity against Proteus mirabilis by disk diffusion method.
A further experiment has as its system Shigella flexneri. Briefly: Antibacterial activity against Shigella flexneri by disk diffusion method. The format is functional.
Another experiment concerns Bacillus subtilis. Briefly: Antibacterial activity against Bacillus subtilis by disk diffusion method.
For another experiment, the system named is Enterobacter cloacae. The experiment in a line: Antibacterial activity against Enterobacter cloacae by disk diffusion method. The format is functional.
The test system of the next experiment is Staphylococcus aureus. The experiment in a line: Antibacterial activity against Staphylococcus aureus by disk diffusion method. The format is functional.

Take `O=C(O)c1cn(C2CC2)c2cc(N3CCNCC3)c(F)cc2c1=O` [CIPROFLOXACIN]: the MIC in the experiment on Pseudomonas aeruginosa, in the experiment on Proteus mirabilis, in the experiment on Shigella flexneri and against Bacillus subtilis was 20 µg/mL (≈ 60.4 µM) throughout.

With `O=C(O)c1cc(=O)c2ccccc2[nH]1` [TRANSTORINE], the values for the minimum inhibitory concentration (MIC) in the experiment with Pseudomonas aeruginosa, with Enterobacter cloacae and in the experiment with Staphylococcus aureus were 500 µg/mL (≈ 2640 µM), 450 µg/mL (≈ 2380 µM) and 380 µg/mL (≈ 2010 µM), respectively. Further, the result with Shigella flexneri was inactive.
